Source: patent publication US20120064513A1, “Cell Sensor, And Monitoring Method Using Same For The Real-Time Monitoring Of Cell Capacitance” (Industry-Acaddemic Cooperation Foundation, Yonsei …, priority 2009, published 2012)

System: HEP1 cell highly expressing CAR (coxsackie and adenovirus receptor)
Experiment: real-time monitoring of cell capacitance with the cell sensor, HEP1 cells
Assay type: cell-based
Text: The cell sensor 100 is connected to an LCR meter to measure capacitance, thereby monitoring potential changes of the cell 200 in real time. At this time, 10 mV of AC voltage at a frequency of 3 KHz is applied to the cell sensor 100. In this regard, the frequency of AC voltage applied to the cell sensor 100 may vary depending on the gap size between the first electrode 121 and the second electrode 122, and any frequency other than 3 KHz is also possible, as long as it is a low frequency.
A method for monitoring a cell condition in real time using the cell sensor according to the preferred embodiment of the present invention is as follows.
First, the aforementioned cell sensor is fabricated. The fabricated electrode is sterilized using autoclave equipment and ethanol, and then the well made of acryl or PDMS is attached on the electrode for cell culture.
Next, cells grown to a predetermined density are harvested with trypsin-EDTA, and introduced and attached onto the gap area between the electrodes using a pipette.
Subsequently, the cell-loaded electrodes are placed in a 5% CO2 cell culture incubator at 37° C. and incubated for 12 hrs, in order to tightly attach the cells onto the gap between the electrodes. During incubation, the cells are observed under an optical microscope, whether their conditions are suitable for the experiment.
Thereafter, the fluidic channel is mounted onto the electrodes where the cells are tightly attached, and is fixed on the stage of an optical microscope, of which the bottom is maintained at 37° C. Then, a cell culture media and at least one of biomolecules, cell death-inducing agents and metal particles for observation of endocytosis or adsorption is introduced through the inlet of the fluidic channel. […]
During the cell cultivation, capacitance between the first electrode and the second electrode is measured in real time, and thus endocytosis of the biomolecules into the cells through the cell surface receptor or adsorption is monitored in real time.

[1] = HEP1 cells, pretreatment then virus 1*10^5 per chamber

Molecule	capacitance after the initial peak, virus after pretreatment of the cells [1]	initial capacitance peak on virus endocytosis after pretreatment of the cells [1]	cell capacitance during cell death by cell death-inducing agent (HEP-1 cells, final concentration 50 ng/ml)
NC(=O)c1ncn([C@@H]2O[C@H](CO)[C@@H](O)[C@H]2O)n1 [Ribavirin]	the capacitance after the peak decreases	the initial peak appears	
TRAIL: cell death-inducing agent, TRAIL (TNF related apoptosis inducing ligand) (protein, UniProt P50591 1-281, looked up) Tumor necrosis factor ligand …: MAMMEVQGGPSLGQTCVLIVIFTVLLQSLCVAVTYVYFTNELKQMQDKYSKSGIACFLKEDDSYWDPNDEESMNSPCWQVKWQLRQLVRKMILRTSEETISTVQEKQQNISPLVRERGPQRVAAHITGTRGRSNTLSSPNSKNEKALGRKINSWESSRSGHSFLSNLHLRNGELVIHEKGFYYIYSQTYFRFQEEIKENTKNDKQMVQYIYKYTSYPDPILLMKSARNSCWSKDAEYGLYSIYQGGIFELKENDRIFVSVTNEHLIDMDHEASFFGAFLVG			capacitance decreases during cell death
